In patent publication US20130204017A1, “GLYCERYL ASCORBIC ACID ACYLATED DERIVATIVE OR ITS SALT, PRODUCTION METHOD THEREOF, AND COSMETICS” (SEIWA KASEI COMPANY, LIMITED, priority 2012, published 2013):

Legend:
B16 melanoma 4A5 cell = assay: Melanin production suppressing evaluation test (theophylline-induced melanine production); type: cell-based, mouse; settings: sample at a concentration of 100 μl or less; 0.2 mM theophylline; culturing 3 days
Protocol: As a test for a whitening effect, evaluation of the action of B16 melanoma 4A5 cell on theophylline-induced melanine production was carried out on a glyceryl ascorbic acid acylated derivative of the present invention, according to the following procedure. The same evaluations were carried out also on arbutin, ascorbic acid, sodium ascorbate, magnesium ascorbyl phosphate, glucosyl ascorbic acid, and 3-O-glyceryl ascorbic acid and 2-O-glyceryl ascorbic acid obtained in the Synthesis Examples mentioned above, as comparison.
(1) B16 mouse melanoma 4A5 strain was sowed onto a 48-well plate at a cell density of 2.0×10^4 cells/well. (2) Culturing was performed for 24 hours with Dulbecco's Modified Eagle's medium (manufactured by SIGMA. Hereinafter, abbreviated as D-MEM) containing 10% fetal bovine serum (manufactured by Roshe Diagnostics). Then, it was changed to 0.2 mM theophylline and a 10% fetal bovine serum-containing D-MEM which contains a sample of given concentration. (3) After culturing for 3 days in the co-existence of a sample, the medium was removed using an aspirator. Then, after distilled water was added, cells were broken by an ultrasonic wave. (4) Thereafter, the amount of protein was determined using BCA protein assay kit (manufactured by PIERCE), and the produced amount of melanine was measured by an alkali solubilizing method described later. To the cell-destructed solution was added sodium hydroxide so as to give a final concentration of 2 mol/L and the mixture was dissolved by heating (60° C., 15 minutes), then, the absorbance at 450 nm was measured using a micro plate reader. The melanine amount was calculated from a calibration curve made using synthetic melanine (SIGMA) as a standard. The melanine amount per unit protein was calculated by dividing the melanine amount by the protein amount. (5) The melanine production suppressing rate was calculated according to the following formula.
Melanine production suppressing rate(%)=[1−(A−B)/(C−B)]×100
[wherein, A represents the melanine amount per unit protein (g/g) in adding a sample, B represents the melanine amount per unit protein (g/g) in the normal group, and C represents the melanine amount per unit protein (g/g) in the control group.]
The normal group means the case where neither theophylline nor sample was added.(that is; theophylline(−) and sample(−))
The control group means the case where neither sample was not added but theophylline was added.(that is; theophylline (+) and sample(−))
In the following Tables, the melanine production suppressing rate in applying a sample at a concentration of […] or less is expressed as described below.

[1] = system: Normal human dermal fibroblasts; assay: Collagen production evaluation test (Sircol collagen assay); type: cell-based; settings: sample 100 μM, cultured 48 hours; for activity at 100 µM: Homo sapiens, Fibroblast, read-out: Collagen production promoting effect (collagen production amount, control group is 100%)
Protocol: The collagen production promoting effects of the glyceryl ascorbic acid acylated derivatives of the present invention were evaluated, according to the following procedure. As comparison, arbutin, ascorbic acid, sodium ascorbate, magnesium ascorbyl phosphate, glucosyl ascorbic acid, 3-O-glyceryl ascorbic acid and 2-O-glyceryl ascorbic acid were used like in Test Example 1.
Normal human dermal fibroblasts were regulated with a 10% (v/v) fetal bovine serum (manufactured by Invitrogen)-containing D-MEM so as to give a cell density of 2.5×10^4 cells/well, then, pre-incubation for 24 hours was performed on a 96-well plate. After the medium was removed, a sample regulated with a 5% (v/v) fetal bovine serum-containing D-MEM to a concentration of 100 μM was added to each well, then, cultured for 48 hours at 37° C. and 5% CO2. After completion of culturing, the amount of free collagen was measured using Sircol collagen assay kit (manufactured by Biocolor).
The collagen production amount in applying a sample at a concentration of 100 μM is obtained as % value when the control group is 100%, and the results are shown in Table 4 based on the following standard.

[2] = In vivo moisturizing test (stratum corneum water content, forearm); settings: 5 g in 100 mL water, pH 7, 0.3 mL on forearm, 10 subjects
Protocol: (§1) An in vitro moisturizing test and an in vivo moisturizing test of the glyceryl ascorbic acid acylated derivatives of Examples 1 to 6 were carried out according to the following manner. For comparison, sodium ascorbate, magnesium ascorbyl phosphate, glucosyl ascorbic acid, 3-O-glyceryl ascorbic acid, 2-O-glyceryl ascorbic acid and 3-O-cetyl ascorbic acid were used.
Each test sample (5 g) was dissolved in 100 mL of water, and pH thereof was adjusted to 7 with a dilute sodium hydroxide aqueous solution or a dilute hydrochloric acid aqueous solution to prepare a sample solution. A paper filter of 1 cm×1 cm was placed on a forearm portion and 0.3 mL of the prepared sample solution was applied on this, and covered and fixed by a polyamide film. Then, 3 hours and 8 hours after, the stratum corneum water content at the sample-applied portion was measured using CORNEOMETER CM825 (manufactured by Integral Corporation). The test was carried out with 10 subjects, and evaluated according to the following criterion (evaluation standard).
3: Stratum corneum water content increased by 15% or more, based on the water content before sample application
2: Stratum corneum water content increased by 0 to less than 15%, based on the water content before sample application
1: There was no change or there was a reduction in stratum corneum water content, before and after sample application.
Based on the evaluation results, classification was set as described below.
◯: Total points of 10 subjects is 25 or more
Δ: Total points of 10 subjects is 16 to 24
x: Total points of 10 subjects is 15 or less

[3] = Stability test: odor and color change of 2% aqueous solution stored at 50° C.; type: physicochemical; settings: pH7, ten panelists
Protocol: Using 2-O-glyceryl-6-O-octanoyl ascorbic acid obtained in Example 2 and 2-O-glyceryl-6-O-octadecanoyl ascorbic acid obtained in Example 9, an evaluation was made on the stability of odor and color change when stored at 50° C. for 4 weeks, according to the following procedure. For comparison, magnesium ascorbyl phosphate, ascorbic acid and 3-O-glyceryl ascorbic acid were used.
Aqueous solutions (2%) of various test samples were adjusted to pH7 with a dilute sodium hydroxide aqueous solution or a dilute hydrochloric acid aqueous solution, and charged into 50 mL screw tubes. The tubes were sealed and stored at 50° C. for 4 weeks. The odor and degree of color change immediately after preparation, after storage for two weeks and after storage for four weeks were evaluated by ten panelists based on the following methods and according to the following criterion.
3: almost no change as compared with that immediately after preparation
2: color change is observed as compared with that immediately after preparation
1: intense color change is observed as compared with that immediately after preparation
Based on the evaluation results, classification was conducted as shown below.
◯: total point of 10 panelists is 25 or more
Δ: total point of 10 panelists is 16 to 24
x: total point of 10 panelists is 15 or less

[4] = In vitro moisturizing test (amount of retained water); type: physicochemical; settings: 25° C., 65% RH to equilibrium, then 25° C., 20% RH for 24 hours
Protocol: as §1
A sample shown later was dried, and the dried sample was spread in an amount of about 0.4 g (this weight is represented by W0) on the bottom of a weighing bottle (diameter: 3.6 cm, height excluding lid: 1.8 cm) so as to give uniform thickness. The sample contained in the weighing bottle was allowed to stand still in a constant humidity and constant temperature vessel (ENVIROS KCL-1000, EYELA) under environments of 25° C. and 65% RH. The weight was measured periodically, waiting until sufficient moisture absorption to attain equilibrium of weight increase (about 48 hours). Thereafter, the sample was transferred to under environments of 25° C. and 20% RH (in sealed vessel containing a saturated CH3COOK aqueous solution filled in the bottom part). From the weight after 24 hours (this weight is represented by W1), the amount of retained water per 1 g of the dried sample was calculated according to the following formula.
From the water amount thus calculated, the moisturizing effect was judged based on the following judging criterion, and the results are shown in Table 8.
Δ: 15 mg or more and less than 35 mg

[5] = storage period 0 (immediately after preparation)

## CCCCCCCC(=O)OCC(O)COC1=C(O)[C@@H]([C@@H](O)COC(=O)CCCCCCC)OC1=O (some centres unmarked) [Example 4, 2-O-(3′-O-octanoylglyceryl)-6-O-octanoyl ascorbic acid]
B16 melanoma 4A5 cell
  Whitening effect (melanine production suppressing rate): ⊚ (50% or more)
[1]
  activity at 100 µM: 100 to 200%
[2]
  in vivo moisturizing (stratum corneum water content) after 3 hours: ◯ (Total points of 10 subjects is 25 or more)
  in vivo moisturizing (stratum corneum water content) after 8 hours: ◯ (Total points of 10 subjects is 25 or more)

## CCCCCCCC(=O)OC[C@H](O)[C@H]1OC(=O)C(OCC(O)CO)=C1O (some centres unmarked) [Example 2, 2-O-glyceryl-6-O-octanoyl ascorbic acid]
B16 melanoma 4A5 cell
  Whitening effect (melanine production suppressing rate): ⊚ (50% or more)
[1]
  activity at 100 µM: 100 to 200%
[3]; storage 2 weeks at 50° C.
  Color change: ◯ (total point of 10 panelists is 25 or more)
  Odor: ◯ (total point of 10 panelists is 25 or more)
[3]; storage 4 weeks at 50° C.
  Color change: ◯ (total point of 10 panelists is 25 or more)
  Odor: ◯ (total point of 10 panelists is 25 or more)
[3]; [5]
  Color change: ◯ (total point of 10 panelists is 25 or more)
  Odor: ◯ (total point of 10 panelists is 25 or more)
[2]
  in vivo moisturizing (stratum corneum water content) after 3 hours: ◯ (Total points of 10 subjects is 25 or more)
  in vivo moisturizing (stratum corneum water content) after 8 hours: ◯ (Total points of 10 subjects is 25 or more)

## CCCCC(CC)C(=O)OC[C@H](O)[C@H]1OC(=O)C(OCC(O)CO)=C1O (some centres unmarked) [Example 6, 2-O-glyceryl-6-O-(2-ethylhexanoyl) ascorbic acid]
B16 melanoma 4A5 cell
  Whitening effect (melanine production suppressing rate): ⊚ (50% or more)
[1]
  activity at 100 µM: 100 to 200%
[2]
  in vivo moisturizing (stratum corneum water content) after 3 hours: ◯ (Total points of 10 subjects is 25 or more)
  in vivo moisturizing (stratum corneum water content) after 8 hours: ◯ (Total points of 10 subjects is 25 or more)

## O=C1O[C@H]([C@@H](O)CO)C(O)=C1OCC(O)CO (some centres unmarked) [2-O-glyceryl ascorbic acid, reference compound]
B16 melanoma 4A5 cell
  Whitening effect (melanine production suppressing rate): Δ (Less than 30%)
[1]
  activity at 100 µM: 100 to 200%
[4]
  in vitro moisturizing effect (amount of retained water per 1 g of the dried sample): ◯ (35 mg or more)
[2]
  in vivo moisturizing (stratum corneum water content) after 3 hours: Δ (Total points of 10 subjects is 16 to 24)
  in vivo moisturizing (stratum corneum water content) after 8 hours: Δ (Total points of 10 subjects is 16 to 24)

## CCCCCCCCCCCC(=O)OC[C@H](O)[C@H]1OC(=O)C(OCC(O)CO)=C1O (some centres unmarked) [Example 5, 2-O-glyceryl-6-O-dodecanoyl ascorbic acid]
B16 melanoma 4A5 cell
  Whitening effect (melanine production suppressing rate): ⊚ (50% or more)
[1]
  activity at 100 µM: 100 to 200%
[2]
  in vivo moisturizing (stratum corneum water content) after 3 hours: ◯ (Total points of 10 subjects is 25 or more)
  in vivo moisturizing (stratum corneum water content) after 8 hours: ◯ (Total points of 10 subjects is 25 or more)

## O=C1O[C@H]([C@@H](O)CO)C(O)=C1O[C@H]1O[C@H](CO)[C@@H](O)[C@H](O)[C@H]1O [Glucosyl ascorbic acid, reference compound]
B16 melanoma 4A5 cell
  Whitening effect (melanine production suppressing rate): Δ (Less than 30%)
[1]
  Collagen production promoting effect (collagen production amount, control group is 100%): + (100 to 200%)
[4]
  in vitro moisturizing effect (amount of retained water per 1 g of the dried sample): Δ (15 mg or more and less than 35 mg)

## CCCC(=O)OC[C@H](O)[C@H]1OC(=O)C(OCC(O)CO)=C1O (some centres unmarked) [Example 1, 2-O-glyceryl-6-O-butanoyl ascorbic acid]
B16 melanoma 4A5 cell
  Whitening effect (melanine production suppressing rate): ◯ (30 to 49%)
[1]
  activity at 100 µM: 100 to 200%
[2]
  in vivo moisturizing (stratum corneum water content) after 3 hours: ◯ (Total points of 10 subjects is 25 or more)
  in vivo moisturizing (stratum corneum water content) after 8 hours: ◯ (Total points of 10 subjects is 25 or more)

## CCCCCCCCCCCCCCCC(=O)OC[C@H](O)[C@H]1OC(=O)C(OCC(O)CO)=C1O (some centres unmarked) [Example 3, 2-O-glyceryl-6-O-hexadecanoyl ascorbic acid]
B16 melanoma 4A5 cell
  Whitening effect (melanine production suppressing rate): ⊚ (50% or more)
[1]
  activity at 100 µM: 100 to 200%
[2]
  in vivo moisturizing (stratum corneum water content) after 3 hours: ◯ (Total points of 10 subjects is 25 or more)
  in vivo moisturizing (stratum corneum water content) after 8 hours: ◯ (Total points of 10 subjects is 25 or more)
